According to ChEMBL document CHEMBL5500364, “Design, synthesis, and biological evaluation of some 2-(3-oxo-5,6-diphenyl-1,2,4-triazin-2(3H)-yl)-N-phenylacetamide hybrids as MTDLs for Alzheimer's disease therapy” (Eur J Med Chem, 2024):
Active and inactive are the calls of the source. The calls are words filed in the database; no cut-off is given here.

Key:
[1] = Acute toxicity in Wistar rat assessed as effect on cardiac muscle at 500 to 1000 mg/kg, po administered for 14 days by histopathological analysis; assay type: organism-based; details: in vivo, 336 h, dose 500-1000 mg/kg, time 14 day
[2] = Neurotoxicity in human SH-SY5Y cells assessed as reduction in cell population at 80 uM incubated for 24 hrs by MTT assay
[3] = molecular target: Amyloid-beta precursor protein (Homo sapiens) (UniProt P05067); assay: Inhibition of amyloid beta (1 to 42) (unknown origin) aggregation assessed as appearance of thinner aggregates at 50 uM incubated for 48 hrs by TEM imaging analysis
Hippocampus = assay: Reversal of scopolamine-induced oxidative stress in male Wistar rat brain hippocampus assessed as decrease in MDA level at 2.5 to 10 mg/kg, po preadministered with compound for 30 mins starting from 7 th day trail followed by scopolamine administration and measured after 5 mins by TBARS assay; assay type: functional, organism-based; details: dose 2.5-10 mg/kg, time 35.0 min
Rattus norvegicus [4] = assay: Reversal of amyloid beta (1 to 42 residues) induced cognitive impairment in Wistar rat assessed as decrease in Tau protein level at 10 mg/kg, po pretreated with amyloid beta for 7 days followed by compound administration for 9 days and measured after 5 days by Western blot analysis; assay type: functional, organism-based; details: time 14.0 day
[5] = Toxicity in wildtype Oregon R-positive Drosophila assessed as eclosion at 50 uM pretreated for 5 days and measured for 15 days relative to control; details: 480 h, time 20 day
[6] = Toxicity in wildtype Oregon R-positive Drosophila assessed as cell viability in gut at 5 uM by MTT assay relative to control; assay type: tissue-based; details: read-out: Activity
Rattus norvegicus [7] = assay: Antialzheimer activity against scopolamine-induced amnesia in male Wistar rat model assessed as restoration of memory function by measuring percentage spontaneous alteration at 2.5 to 10 mg/kg, po preadministered with compound for 30 mins starting from 7 th day trail followed by scopolamine administration and measured after 5 mins by Y maze test; assay type: functional, organism-based; details: dose 2.5-10 mg/kg, time 35.0 min
Rattus norvegicus [8] = assay: Reversal of amyloid beta (1 to 42 residues) induced cognitive impairment in Wistar rat assessed as increase in platform crossings at 10 mg/kg, po pretreated with amyloid beta for 7 days followed by compound administration for 9 days and measured after 1 days by Morris water maze test; assay type: functional, organism-based; details: time 10.0 day
Rattus norvegicus [9] = assay: Reversal of amyloid beta (1 to 42 residues) induced cognitive impairment in Wistar rat assessed as decrease in amyloid level in CA1 region of hippocampus at 10 mg/kg, po pretreated with amyloid beta for 7 days followed by compound administration for 9 days and measured after 5 days by immuno histochemical analysis; assay type: functional, organism-based; details: time 14.0 day
[10] = Acute toxicity in Wistar rat assessed as effect on kidney appearance at 500 to 1000 mg/kg, po administered for 14 days by histopathological analysis; assay type: organism-based; details: in vivo, 336 h, dose 500-1000 mg/kg, time 14 day
Rattus norvegicus [11] = assay: Upregulation of ACh level in scopolamine-induced male Wistar rat brain hippocampus preadministered with compound orally for 30 mins starting from 7 th day trail followed by scopolamine administration and measured after 5 mins by GENELISA; assay type: functional, tissue-based; details: dose 2.5-10 mg/kg, route po, time 35.0 min
[12] = molecular target: Dual specificity tyrosine-phosphorylation-regulated kinase 1A (Homo sapiens, UniProt Q13627); assay: Inhibition of Dyrk1A (unknown origin) incubated for 1 hrs in presence of [gamma-33P]-ATP by microplate scintillation counter based radiometric protein kinase assay
Rattus norvegicus [13] = assay: Antialzheimer activity against scopolamine-induced amnesia in male Wistar rat model assessed as increase in total arm enteries at 2.5 to 10 mg/kg, po preadministered with compound for 30 mins starting from 7 th day trail followed by scopolamine administration and measured after 5 mins by Y maze test; assay type: functional, organism-based; details: dose 2.5-10 mg/kg, time 35.0 min
Rattus norvegicus [14] = assay: Reversal of amyloid beta (1 to 42 residues) induced cognitive impairment in Wistar rat assessed as decrease in alpha-synuclein protein level at 10 mg/kg, po pretreated with amyloid beta for 7 days followed by compound administration for 9 days and measured after 5 days by Western blot analysis; assay type: functional, organism-based; details: time 14.0 day
Rattus norvegicus [15] = assay: Reversal of amyloid beta (1 to 42 residues) induced cognitive impairment in Wistar rat assessed as reduction in escape latency time at 10 mg/kg, po pretreated with amyloid beta for 7 days followed by compound administration for 9 days and measured after 1 days by Morris water maze test; assay type: functional, organism-based; details: time 10.0 day
[16] = Toxicity in wildtype Oregon R-positive Drosophila assessed as eclosion at 10 uM pretreated for 5 days and measured for 15 days relative to control; details: 480 h, time 20 day
Rattus norvegicus [17] = assay: Reversal of amyloid beta (1 to 42 residues) induced cognitive impairment in Wistar rat assessed as decrease in BACE-1 level in CA3 region of hippocampus at 10 mg/kg, po pretreated with amyloid beta for 7 days followed by compound administration for 9 days and measured after 5 days by immuno histochemical analysis; assay type: functional, organism-based; details: time 14.0 day
[18] = Half-life in male Wistar rat at 10 mg/kg, po measured after 72 hrs by HPLC analysis; assay type: ADME, organism-based; details: in vivo
[19] = Acute toxicity in Wistar rat assessed as toxicity symptoms at 500 to 1000 mg/kg, po administered for 14 days; assay type: organism-based; details: in vivo, 336 h, dose 500-1000 mg/kg, time 14 day
Rattus norvegicus [20] = assay: Reversal of amyloid beta (1 to 42 residues) induced cognitive impairment in Wistar rat assessed as increase in platform crossings at 10 mg/kg, po pretreated with amyloid beta for 7 days followed by compound administration for 9 days and measured after 5 days by Morris water maze test; assay type: functional, organism-based; details: time 14.0 day
Rattus norvegicus [21] = assay: Reduction in AChE level in scopolamine-induced male Wistar rat brain hippocampus preadministered with compound orally for 30 mins starting from 7 th day trail followed by scopolamine administration and measured after 5 mins by Ellman's method; assay type: functional, tissue-based; details: dose 2.5-10 mg/kg, route po, time 35.0 min
Rattus norvegicus [22] = assay: Reversal of amyloid beta (1 to 42 residues) induced cognitive impairment in Wistar rat assessed as decrease in BACE-1 level in DG region of hippocampus at 10 mg/kg, po pretreated with amyloid beta for 7 days followed by compound administration for 9 days and measured after 5 days by immuno histochemical analysis; assay type: functional, organism-based; details: time 14.0 day
Drosophila = assay: Neuroprotective activity in ey-GAL4>UAS-amyloid beta (1 to 42) induced cellular toxicity in Oregon R-positive Drosophila model assessed as rescue in eye phenotype at 20 uM by Stereo zoom microscopic imaging analysis relative to control; assay type: functional
[23] = Toxicity in wildtype Oregon R-positive Drosophila assessed as cell viability in gut at 10 uM by MTT assay relative to control; assay type: tissue-based; details: read-out: Activity
[24] = molecular target: Amyloid-beta precursor protein (Homo sapiens) (UniProt P05067); assay: Inhibition of amyloid beta (1 to 42) (unknown origin) aggregation assessed as maximum peak height of aggregates incubated for 48 hrs by AFM analysis
[25] = AUC (0 to 8 hrs) in male Wistar rat at 10 mg/kg, po measured after 72 hrs by HPLC analysis; assay type: ADME, organism-based; details: in vivo
Cholinesterase = Cholinesterase (Homo sapiens, UniProt P06276); assay: Inhibition of human BChE using butyrylthiocholine iodide as substrate preincubated for 30 mins followed by substrate addition by DTNB based Ellman's colorimetric method
Rattus norvegicus [26] = assay: Reversal of amyloid beta (1 to 42 residues) induced cognitive impairment in Wistar rat assessed as decrease in BACE-1 protein level at 10 mg/kg, po pretreated with amyloid beta for 7 days followed by compound administration for 9 days and measured after 5 days by Western blot analysis; assay type: functional, organism-based; details: time 14.0 day
[27] = Acute toxicity in Wistar rat assessed as body weight loss at 500 to 1000 mg/kg, po measured for 2 to 3 days relative to control; assay type: organism-based; details: in vivo, dose lower 500 mg/kg, time lower 2 day, dose upper 1000 mg/kg, time upper 3 day

Chain of Amyloid-beta precursor protein (Homo sapiens) (P05067 whole entry): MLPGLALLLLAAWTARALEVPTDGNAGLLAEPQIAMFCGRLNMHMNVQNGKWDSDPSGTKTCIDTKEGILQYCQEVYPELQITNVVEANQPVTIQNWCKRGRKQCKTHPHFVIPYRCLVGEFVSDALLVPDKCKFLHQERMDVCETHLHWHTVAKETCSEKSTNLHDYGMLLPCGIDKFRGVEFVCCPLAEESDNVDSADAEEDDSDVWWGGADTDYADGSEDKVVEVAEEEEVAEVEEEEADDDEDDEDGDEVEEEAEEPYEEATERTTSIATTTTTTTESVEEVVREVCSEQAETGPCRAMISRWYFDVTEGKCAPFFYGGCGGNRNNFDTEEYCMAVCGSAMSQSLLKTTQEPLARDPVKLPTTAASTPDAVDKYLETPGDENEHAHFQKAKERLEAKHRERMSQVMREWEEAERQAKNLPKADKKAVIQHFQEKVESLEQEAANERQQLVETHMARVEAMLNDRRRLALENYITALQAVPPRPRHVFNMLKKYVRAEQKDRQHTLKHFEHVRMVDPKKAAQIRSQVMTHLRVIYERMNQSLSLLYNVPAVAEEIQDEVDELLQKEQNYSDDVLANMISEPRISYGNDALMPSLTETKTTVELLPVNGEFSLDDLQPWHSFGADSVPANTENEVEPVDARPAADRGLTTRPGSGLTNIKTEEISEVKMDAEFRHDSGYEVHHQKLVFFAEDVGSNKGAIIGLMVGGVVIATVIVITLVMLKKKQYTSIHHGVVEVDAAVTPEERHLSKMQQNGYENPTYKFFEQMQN
Chain of Cholinesterase (P06276 whole entry, the tested form may be a part): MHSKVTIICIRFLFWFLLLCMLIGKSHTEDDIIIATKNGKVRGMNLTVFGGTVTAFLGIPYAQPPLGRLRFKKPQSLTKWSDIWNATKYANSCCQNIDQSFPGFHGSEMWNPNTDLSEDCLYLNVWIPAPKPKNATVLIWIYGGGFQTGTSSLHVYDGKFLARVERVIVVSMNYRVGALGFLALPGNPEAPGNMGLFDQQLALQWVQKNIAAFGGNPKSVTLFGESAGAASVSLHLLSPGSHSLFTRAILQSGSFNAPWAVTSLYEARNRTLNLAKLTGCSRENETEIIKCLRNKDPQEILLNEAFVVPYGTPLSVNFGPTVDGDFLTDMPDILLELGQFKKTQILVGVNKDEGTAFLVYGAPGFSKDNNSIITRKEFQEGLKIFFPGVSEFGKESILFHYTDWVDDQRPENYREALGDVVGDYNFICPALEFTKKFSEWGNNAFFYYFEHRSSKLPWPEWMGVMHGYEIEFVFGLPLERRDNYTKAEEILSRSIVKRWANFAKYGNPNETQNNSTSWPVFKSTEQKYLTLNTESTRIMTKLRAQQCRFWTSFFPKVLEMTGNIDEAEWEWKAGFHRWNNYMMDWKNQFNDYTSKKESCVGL

With COc1cc(NC(=O)Cn2nc(-c3ccccc3)c(-c3ccccc3)nc2=O)cc(OC)c1 as the compound, how does the Activity [1] read?
Its Activity is “Non-Toxic”.

And the Activity [2]?
Its Activity is “Non-Toxic”.

And the inhibition [3]?
The inhibition was “Active”.

And the Activity (Hippocampus)?
The Activity was “Active”.

What about the Activity (Rattus norvegicus [4]) of the same compound?
The Activity was “Active”.

And the Activity [5]?
The Activity was 25%.

What about the viability at 5 µM [6] of the same compound?
Its viability at 5 µM is 97%.

What about the Activity (Rattus norvegicus [7]) of the same compound?
The Activity was “Active”.

What about the Activity (Rattus norvegicus [8]) of the same compound?
The Activity was “inactive”.

What about the Activity (Rattus norvegicus [9]) of the same compound?
Its Activity is “Active”.

And the Activity [10]?
Its Activity is “Non-Toxic”.

What about the Activity (Rattus norvegicus [11]) of the same compound?
Its Activity is “Dose-Dependent Effect”.

What about the IC50 [12] of the same compound?
Its IC50 is > 10 µM.

What about the Activity (Rattus norvegicus [13]) of the same compound?
The Activity was “Active”.

What about the Activity (Rattus norvegicus [14]) of the same compound?
The Activity was “Active”.

And the Activity (Rattus norvegicus [15])?
Its Activity is “inactive”.

And the Activity [16]?
Its Activity is 85%.

And the Activity (Rattus norvegicus [17])?
The Activity was “Active”.

And the half-life [18]?
The half-life was 41 h.

What about the Activity [19] of the same compound?
The Activity was “Non-Toxic”.

What about the Activity (Rattus norvegicus [20]) of the same compound?
The Activity was “Active”.

What about the Activity (Rattus norvegicus [21]) of the same compound?
Its Activity is “Dose-Dependent Effect”.

And the Activity (Rattus norvegicus [22])?
The Activity was “Active”.

And the Activity (Drosophila)?
The Activity was 57%.

What about the viability at 10 µM [23] of the same compound?
The viability at 10 µM was 78%.

What about the Activity [24] of the same compound?
The Activity was 253 nm.

What about the AUC(0-t) at 72 h [25] of the same compound?
The AUC(0-t) at 72 h was 1140 ng·h/mL.

And the IC50 (Cholinesterase)?
Its IC50 is > 10 µM.

What about the Activity (Rattus norvegicus [26]) of the same compound?
The Activity was “Active”.

And the Activity [27]?
Its Activity is 7%.
